Measurements published in patent US20140073634A1 (Institute For Applied Cancer Science/The University of …, priority 2012, published 2014).

Test system: 293T-HRE-GFP-luc cells
Assay: Cell-based reporter assay for IC50 determinations (HRE-luciferase, hypoxia)
Settings: 6 hrs hypoxia (1% O2), luminescence
Outline: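 293T-HRE-GFP-luc cells were pre-incubated with serially diluted compounds for 30 min under normoxia, then held 6 hrs in hypoxia (1% O2, 37° C). HRE-driven luciferase read by Steadylite Plus luminescence; IC50 from four-parameter logistic fit.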

| Compound | IC50 (6 h) | IC50 |
| --- | --- | --- |
| N#CC1CCN(c2cc(Cn3cc(-c4nc(-c5ccc(OC(F)(F)F)cc5)no4)ccc3=O)ccn2)CC1 [Example 153, 1-{4-[(2-oxo-5-{3-[4-(trifluoromethoxy)phenyl]-1,2,4-oxadiazol-5-yl}-1,2-dihydropyridin-1-yl)methyl]pyridin-2-yl}piperidine-4-carbonitrile] | < 100 nM |  |
| CC1(C)CCN(c2cc(Cn3cc(-c4nc(-c5ccc(OC(F)(F)F)cc5)no4)ccc3=O)ccn2)CC1 [Example 154, 1-{[2-(4,4-dimethylpiperidin-1-yl)pyridin-4-yl]methyl}-5-{3-[4-(trifluoromethoxy)phenyl]-1,2,4-oxadiazol-5-yl}-1,2-dihydropyridin-2-one] | < 100 nM |  |
| COC(=O)Cc1cccc(Cn2cc(-c3nc(-c4ccc(OC(F)(F)F)cc4)no3)ccc2=O)c1 [Example 155, methyl 2-{3-[(2-oxo-5-{3-[4-(trifluoromethoxy)phenyl]-1,2,4-oxadiazol-5-yl}-1,2-dihydropyridin-1-yl)methyl]phenyl}acetate] | < 100 nM |  |
| CN1CCN(C(=O)Cc2cccc(Cn3cc(-c4nc(-c5ccc(OC(F)(F)F)cc5)no4)ccc3=O)c2)CC1 [Example 156, 1-({3-[2-(4-methylpiperazin-1-yl)-2-oxoethyl]phenyl}methyl)-5-{3-[4-(trifluoromethoxy)phenyl]-1,2,4-oxadiazol-5-yl}-1,2-dihydropyridin-2-one] | < 100 nM |  |
| CN(C)C(=O)Cc1cccc(Cn2cc(-c3nc(-c4ccc(OC(F)(F)F)cc4)no3)ccc2=O)c1 [Example 157, N,N-dimethyl-2-{3-[(2-oxo-5-{3-[4-(trifluoromethoxy)phenyl]-1,2,4-oxadiazol-5-yl}-1,2-dihydropyridin-1-yl)methyl]phenyl}acetamide] | < 100 nM |  |
| O=c1ccc(-c2nc(-c3ccc(OC(F)(F)F)cc3)no2)cn1Cc1ccnc(N2CCOCC2)c1 [Example 158, 1-{[2-(morpholin-4-yl)pyridin-4-yl]methyl}-5-{3-[4-(trifluoromethoxy)phenyl]-1,2,4-oxadiazol-5-yl}-1,2-dihydropyridin-2-one] | < 100 nM |  |
| O=c1ccc(-c2nc(-c3ccc(OC(F)(F)F)cc3)no2)cn1Cc1ccnc(N2CCCC2)c1 [Example 159, 1-{[2-(pyrrolidin-1-yl)pyridin-4-yl]methyl}-5-{3-[4-(trifluoromethoxy)phenyl]-1,2,4-oxadiazol-5-yl}-1,2-dihydropyridin-2-one] | < 100 nM |  |
| O=c1ccc(-c2nc(-c3ccc(OC(F)(F)F)cc3)no2)cn1Cc1cccc(N2CCCCC2)c1 [Example 160, 1-{[3-(piperidin-1-yl)phenyl]methyl}-5-{3-[4-(trifluoromethoxy)phenyl]-1,2,4-oxadiazol-5-yl}-1,2-dihydropyridin-2-one] | < 100 nM |  |
| CCS(=O)(=O)c1cccc(Cn2cc(-c3nc(-c4ccc(OC(F)(F)F)cc4)no3)ccc2=O)c1 [Example 161, 1-{[3-(ethanesulfonyl)phenyl]methyl}-5-{3-[4-(trifluoromethoxy)phenyl]-1,2,4-oxadiazol-5-yl}-1,2-dihydropyridin-2-one] | < 100 nM |  |
| COC(=O)C(C)(C)c1cccc(Cn2cc(-c3nc(-c4ccc(OC(F)(F)F)cc4)no3)ccc2=O)c1 [Example 162, methyl 2-methyl-2-{3-[(2-oxo-5-{3-[4-(trifluoromethoxy)phenyl]-1,2,4-oxadiazol-5-yl}-1,2-dihydropyridin-1-yl)methyl]phenyl}propanoate] | < 100 nM |  |
| O=c1ccc(-c2nc(-c3ccc(OC(F)(F)F)cc3)no2)cn1Cc1ccnc(N2CCC(O)CC2)c1 [Example 163, 1-{[2-(4-hydroxypiperidin-1-yl)pyridin-4-yl]methyl}-5-{3-[4-(trifluoromethoxy)phenyl]-1,2,4-oxadiazol-5-yl}-1,2-dihydropyridin-2-one] | < 100 nM |  |
| CCN(CC)S(=O)(=O)c1cccc(Cn2cc(-c3nc(-c4ccc(OC(F)(F)F)cc4)no3)ccc2=O)c1 [Example 164, N,N-diethyl-3-[(2-oxo-5-{3-[4-(trifluoromethoxy)phenyl]-1,2,4-oxadiazol-5-yl}-1,2-dihydropyridin-1-yl)methyl]benzene-1-sulfonamide] | < 100 nM |  |
| CNS(=O)(=O)c1cccc(Cn2cc(-c3nc(-c4ccc(OC(F)(F)F)cc4)no3)ccc2=O)c1 [Example 165, N-methyl-3-[(2-oxo-5-{3-[4-(trifluoromethoxy)phenyl]-1,2,4-oxadiazol-5-yl}-1,2-dihydropyridin-1-yl)methyl]benzene-1-sulfonamide] | < 100 nM |  |
| O=c1ccc(-c2nc(-c3ccc(OC(F)(F)F)cc3)no2)cn1Cc1cccc(OC2COC2)c1 [Example 166, 1-{[3-(oxetan-3-yloxy)phenyl]methyl}-5-{3-[4-(trifluoromethoxy)phenyl]-1,2,4-oxadiazol-5-yl}-1,2-dihydropyridin-2-one] | < 100 nM |  |
| O=C1CN(c2cccc(Cn3cc(-c4nc(-c5ccc(OC(F)(F)F)cc5)no4)ccc3=O)c2)CCN1 [Example 167, 4-{3-[(2-oxo-5-{3-[4-(trifluoromethoxy)phenyl]-1,2,4-oxadiazol-5-yl}-1,2-dihydropyridin-1-yl)methyl]phenyl}piperazin-2-one] | < 100 nM |  |
| O=c1ccc(-c2nc(-c3ccc(OC(F)(F)F)cc3)no2)cn1Cc1cccc(N2CCCS2(=O)=O)c1 [Example 168, 1-(3-(1,1-dioxidoisothiazolidin-2-yl)benzyl)-5-(3-(4-(trifluoromethoxy)phenyl)-1,2,4-oxadiazol-5-yl)pyridin-2(1H)-one] | < 100 nM |  |
| CN1CCN(c2cccc(Cn3cc(-c4nc(-c5ccc(OC(F)(F)F)cc5)no4)ccc3=O)c2)CC1=O [Example 169, 1-methyl-4-{3-[(2-oxo-5-{3-[4-(trifluoromethoxy)phenyl]-1,2,4-oxadiazol-5-yl}-1,2-dihydropyridin-1-yl)methyl]phenyl}piperazin-2-one] | < 100 nM |  |
| CS(=O)(=O)CCCOc1cccc(Cn2cc(-c3nc(-c4ccc(OC(F)(F)F)cc4)no3)ccc2=O)c1 [Example 170, 1-{[3-(3-methanesulfonylpropoxy)phenyl]methyl}-5-{3-[4-(trifluoromethoxy)phenyl]-1,2,4-oxadiazol-5-yl}-1,2-dihydropyridin-2-one] | 100 to 1000 nM |  |
| O=c1ccc(-c2nc(-c3ccc(OC(F)(F)F)cc3)no2)cn1Cc1cccc(CBr)c1 [Example 171, 1-{[3-(bromomethyl)phenyl]methyl}-5-{3-[4-(trifluoromethoxy)phenyl]-1,2,4-oxadiazol-5-yl}-1,2-dihydropyridin-2-one] | < 100 nM |  |
| COC(=O)/C=C/c1cccc(Cn2cc(-c3nc(-c4ccc(OC(F)(F)F)cc4)no3)ccc2=O)c1 [Example 172, methyl (2E)-3-{3-[(2-oxo-5-{3-[4-(trifluoromethoxy)phenyl]-1,2,4-oxadiazol-5-yl}-1,2-dihydropyridin-1-yl)methyl]phenyl}prop-2-enoate] | < 100 nM |  |
| CS(=O)(=O)C1CCN(c2cccc(Cn3nc(-c4nc(-c5ccc(OC(F)(F)F)cc5)no4)ccc3=O)c2)CC1 [Example 173, 2-{[3-(4-methanesulfonylpiperidin-1-yl)phenyl]methyl}-6-{3-[4-(trifluoromethoxy)phenyl]-1,2,4-oxadiazol-5-yl}-2,3-dihydropyridazin-3-one] | < 100 nM |  |
| O=c1ccc(-c2nc(-c3ccc(OC(F)(F)F)cc3)no2)nn1Cc1cccc(O)c1 [Example 174, 2-[(3-hydroxyphenyl)methyl]-6-{3-[4-(trifluoromethoxy)phenyl]-1,2,4-oxadiazol-5-yl}-2,3-dihydropyridazin-3-one] | 100 to 1000 nM |  |
| CS(=O)(=O)C1CCN(c2cc(Cn3cc(-c4nc(-c5ccc(OC(F)(F)F)cc5)no4)ccc3=O)ccn2)CC1 [Example 175, 1-{[2-(4-methanesulfonylpiperidin-1-yl)pyridin-4-yl]methyl}-5-{3-[4-(trifluoromethoxy)phenyl]-1,2,4-oxadiazol-5-yl}-1,2-dihydropyridin-2-one] | < 100 nM |  |
| CN1CCN(c2cc(Cn3cc(-c4nc(-c5ccc(OC(F)(F)F)cc5)no4)ccc3=O)ccn2)CC1=O [Example 176, 1-methyl-4-{4-[(2-oxo-5-{3-[4-(trifluoromethoxy)phenyl]-1,2,4-oxadiazol-5-yl}-1,2-dihydropyridin-1-yl)methyl]pyridin-2-yl}piperazin-2-one] | < 100 nM |  |
| COCCOc1cccc(Cn2nc(-c3nc(-c4ccc(OC(F)(F)F)cc4)no3)ccc2=O)c1 [Example 177, 2-{[3-(2-methoxyethoxy)phenyl]methyl}-6-{3-[4-(trifluoromethoxy)phenyl]-1,2,4-oxadiazol-5-yl}-2,3-dihydropyridazin-3-one] | < 100 nM |  |
| CC(C)(C)[Si](C)(C)OCCOc1cccc(Cn2nc(-c3nc(-c4ccc(OC(F)(F)F)cc4)no3)ccc2=O)c1 [Example 178, 2-[(3-{2-[(tert-butyldimethylsilyl)oxy]ethoxy}phenyl)methyl]-6-{3-[4-(trifluoromethoxy)phenyl]-1,2,4-oxadiazol-5-yl}-2,3-dihydropyridazin-3-one] |  | 100 to 1000 nM |
| O=c1ccc(-c2nc(-c3ccc(OC(F)(F)F)cc3)no2)nn1Cc1cccc(OCCO)c1 [Example 179, 2-{[3-(2-hydroxyethoxy)phenyl]methyl}-6-{3-[4-(trifluoromethoxy)phenyl]-1,2,4-oxadiazol-5-yl}-2,3-dihydropyridazin-3-one] | < 100 nM |  |
| C#CCCCC(=O)N1CCN(c2cccc(Cn3cc(-c4nc(-c5ccc(OC(F)(F)F)cc5)no4)ccc3=O)c2)CC1 [Example 180] | < 100 nM |  |
| CC(=O)N1CCN(c2cccc(Cn3cc(-c4nc(-c5ccc(OC(F)(F)F)cc5)no4)ccc3=O)c2)CC1 [Example 182] | < 100 nM |  |
| CCOC(=O)CN1CCN(c2cccc(Cn3cc(-c4nc(-c5ccc(OC(F)(F)F)cc5)no4)ccc3=O)c2)CC1=O [Example 183, ethyl 2-(2-oxo-4-{3-[(2-oxo-5-{3-[4-(trifluoromethoxy)phenyl]-1,2,4-oxadiazol-5-yl}-1,2-dihydropyridin-1-yl)methyl]phenyl}piperazin-1-yl)acetate] | < 100 nM |  |
